In patent publication US20070213312A1, “Hif-1 Inhibitors and Methods of Use Thereof” (priority 2003, published 2007):
Residues, ends and D or L forms follow the SMILES beside them. *: point of attachment. Cbz = O=C(OCc1ccccc1)*

Columns and labels:
HIF-1α [1] = experiment: HIF-1α detection in cells exposed to DBM plus metals (summary statements); assay type: cell-based, human; conditions: cells exposed to DBM plus the metal; HEK 293 and HT144 for Zn^2+
Description: In subsequent studies, similar data has been found for HEK 293 human embryonic kidney cells and HT144 melanoma cells treated with either DBM or Zn^2+. […] This finding appears to be unique to the combination of DBM with Zn^2+ since it was not observed in cells exposed to DBM plus other metals such as Fe^3+, Co^2+, Cd^2+, and Ni^2+. Furthermore, this unexpected reversal of the independent effects of DBM and Zn^2+ was not blocked by hypoxia. These observations are counterintuitive since inhibitors of HIF P4H should impede degradation of HIF-1α. Also, these two HIF P4H inhibitors appear to work in concert under inhibitory conditions to down-regulate HIF-1α with little effect on HIF-1α mRNA levels.
Basal levels of HIF-1α are low in cells exposed to ambient oxygen, yet under these conditions both DBM and Zn^2+ stabilize HIF-1α and cause the accumulation of HIF-1α protein (FIG. 15). It has been shown that this stabilizing effect on HIF-1α was itself reversed by the concomitant addition of Zn^2+ to DBM under ambient oxygen. […] This destabilizing effect appears unique to the combination of DBM plus Zn^2+ since it was not observed with other metals known to form chelates with DBM such as Fe^3+, Co^2+, Cd^2+ and Ni^2+. […] Though assessment of downstream effectors of HIF-1α (e.g., VEGF) was not included in the preliminary data, the effects of DBM and cobalt on VEGF in LNCaP human prostate cancer cells have been previously reported.

VEGF = conditions: LNCaP cells, ambient O2; cited from earlier work
HIF-1α [2] = conditions: LNCaP cells, ambient O2; cited from earlier work
HIF-1α mRNA = experiment: Semiquantitative PCR (RT-PCR) of HIF-1α mRNA in HEK 293 cells under normoxia; assay type: cell-based, human; conditions: HEK 293, normoxia, 2 hours, serum free media
Description: The effects of DBM alone, Zn^2+ alone and DBM plus Zn^2+ on HIF-1α mRNA levels were assessed by semiquantitative PCR in extracts of HEK 293 kidney cells under normoxia for 2 hours in serum free media (FIG. 17). […] HIF-1αZ mRNA levels were not found to be increased (data not shown).

HIF-1α [3] = experiment: Western blot analysis of HIF-1α in HEK 293 cells under ambient oxygen (normoxia); assay type: cell-based, human; conditions: HEK 293, ambient oxygen; for HIF-1α levels by Western blot: 1 hr, DBM 100 μM, Zn^2+ 25 μM to 100 μM, alone or combined; for HIF-1α by Western blot: agent(s) without further addition; for HIF-1α by Western blot in the presence of proteosome inhibitor MG-132: MG-132 added to the agent(s)
Description: The first unexpected finding was that the combination of DBM plus Zn^2+ reversed the induced stabilization of HIF-1α observed when the cells were exposed to either DBM or Zn^2+ alone under normoxic conditions (FIG. 15). […] HIF-1α was not detected at baseline by Western blot (FIG. 15, lane 1).
Proteosomal degradation of HIF-1α was assessed in HEK 293 embryonic kidney cells treated with DBM alone, Zn^2+ alone or the combination under ambient oxygen in the presence or absence of the proteosome inhibitor MG-132 (FIG. 18). […] (FIG. 18, lane 5). […] The HIF-1α isoforms are more clearly resolved on the gel from FIG. 18 than FIG. 15. This may be due to differences in the time the gels were run.

HIF-1α [4] = experiment: Western blot analysis of HIF-1α in HT144 melanoma cells under hypoxia (1% O2); assay type: cell-based, human; conditions: for HIF-1α levels by Western blot: HT 144 melanoma cells, 2 hours under 1% O2
Description: (§1) HT 144 melanoma cells (FIG. 16 (A)) and HEK 293 embryonic kidney cells (FIG. 16 (B)) were incubated for 2 hours under 1% O2. HIF-1α was detected by Western blot at baseline ([…] lane 1).

HIF-1α [5] = experiment: Western blot analysis of HIF-1α in HEK 293 cells under hypoxia (1% O2); assay type: cell-based, human; conditions: 2 hours under 1% O2, metal added together with DBM
Description: as §1

HIF-1α [6] = experiment: Western blot analysis of HIF-1α in VHL (−/−) RCC-4 renal cell carcinoma cells under normoxia; assay type: cell-based, human; conditions: RCC-4 VHL (−/−), normoxic conditions; MG-132 for 1 hour
Description: As expected, HIF-1α was detected by Western blot under normoxic conditions (FIG. 19, lane 1). […] These experiments have not been performed as yet in RCC4 cells with DBM alone or in RCC4 cells transfected with pVHL.

HIF-1αZ = conditions: cited from earlier work
kidney cancer = conditions: patients with metastatic disease, high doses; cited from earlier work

[Cd+2] [Cd^2+]
Loss of HIF-1α (no HIF-1α detected) when metal is combined with DBM (HIF-1α [1]): not observed

[Co+2] [Co^2+, reference compound]
VEGF levels (VEGF): rapidly increase | HIF-1α levels (HIF-1α [2]): rapidly increase | Loss of HIF-1α (no HIF-1α detected) when metal is combined with DBM (HIF-1α [1]): not observed

O=C(CC(=O)c1ccccc1)c1ccccc1 [DBM, 1,3-diphenylpropane-1,3-dione]
VEGF levels (VEGF): rapidly increase | HIF-1α mRNA levels by semiquantitative PCR (HIF-1α mRNA): not significantly different from baseline | HIF-1α levels by Western blot (HIF-1α [3]): significant increase in HIF-1α levels | HIF-1α by Western blot (HIF-1α [3]; 2 hours): readily detected | HIF-1α by Western blot in the presence of proteosome inhibitor MG-132 (HIF-1α [3]): did not stabilize these other forms of HIF-1α | HIF-1α levels (HIF-1α [2]): rapidly increase | HIF-1α levels by Western blot (HIF-1α [4]): significantly increased the levels of HIF-1α

[Fe+3] [Fe^3+]
Effect of metal added to DBM on HIF-1α levels by Western blot (HIF-1α [5]): decreased slower migrating isoforms of HIF-1α | Loss of HIF-1α (no HIF-1α detected) when metal is combined with DBM (HIF-1α [1]): not observed | Effect of metal added to DBM on HIF-1α levels by Western blot (HIF-1α [4]; HT 144 cells, 2 hours under 1% O2, metal added together with DBM): did not significantly alter the effect of DBM on HIF-1α levels

CC(C)C[C@@H](C=O)NC(=O)[C@H](CC(C)C)NC(=O)[C@H](CC(C)C)NC(=O)OCc1ccccc1 [MG-132, reference compound] (Cbz-Leu-Leu-Leu-aldehyde)
HIF-1α by Western blot (HIF-1α [6]): Stabilization of HIF-1α was enhanced | HIF-1α by Western blot (HIF-1α [3]; 2 hours): accumulation of a broad range of proteins that possibly represent ubiquitinated forms of HIF-1α

[Ni+2] [Ni^2+]
Loss of HIF-1α (no HIF-1α detected) when metal is combined with DBM (HIF-1α [1]): not observed

[Zn+2] [Zn^2+]
HIF-1α mRNA levels by semiquantitative PCR (HIF-1α mRNA): not significantly different from baseline | HIF-1α levels by Western blot (HIF-1α [3]): increased HIF-1α levels in a dose dependent manner | Molecular weight of stabilized HIF-1α isoforms (HIF-1α [3]; 2 hours): higher molecular weight than those induced by DBM | HIF-1α by Western blot (HIF-1α [3]; 2 hours): readily detected | HIF-1α by Western blot in the presence of proteosome inhibitor MG-132 (HIF-1α [3]): did not stabilize these other forms of HIF-1α | Zn^2+ concentration at which HIF-1αZ exhibits loss of exon 12 (HIF-1αZ): above 100 μM | HIF-1α levels by Western blot (HIF-1α [4]): decreased the more rapidly migrating isoforms of HIF-1α

bevacizumab: humanized monoclonal antibody specific for VEGF
Clinical responses (kidney cancer): Clinical responses have been observed
